Series [1] relates to SKOV-3 ovarian cancer cells. The note with it: 24 h. The procedure: SKOV-3 cells were seeded in a 35 mm petri dish with a glass cover slide and allowed […]
A further series is described as follows: in vitro. The note with it: mouse, serum, pH 8.2. Here is the method: A 1.5 mL mixture consisting of 30 μL mouse serum, 750 μL of peptides (1 mg mL^–1) and 1470 μL of digestion buffer (pH 8.2, 50 mM Tris, 20 mM CaCl2) was incubated at 37 °C for 16 h. Peptides treated with digestion buffer served as controls. Aliquots of 400 μL were withdrawn from the mixture and quenched with 400 μL of 1% trifluoroacetic acid (TFA) solution at 1 h, 8 h and 16 h. The quenched solution was analysed by reverse-phase high performance liquid chromatography (RP-HPLC). […]
to adhere overnight at 37 °C under 5% CO2. The cell culture medium was then removed and replaced with fresh McCoy’s 5A medium containing HAL-2 (10 μM) or HAL-C (10 μM) for 1 h. After the medium was removed and the cells were washed with PBS (1 mL × 3 times), 1 mL of PBS containing 4 μL staining solution was added for 1 h.
The cells were then washed with PBS (1 mL × 3 times) before imaging. Cell fluorescence images were obtained with a confocal laser scanning microscope. […] for Tubulin-Trakcer Red: excitation: 561 nm, emission collected: 570 -620 nm; Blue channel for DAPI: excitation: 405 nm, emission collected: 425 -475 nm. (Tubulin-Trakcer Red were purchased from Beyotime Biotechnology) […]
SKOV-3 cells were seeded in a 35 mm petri dish with a glass cover slide and allowed to adhere overnight at 37 °C under 5% CO2. […] Cell fluorescence images were obtained with a confocal laser scanning microscope. […]
A 1.5 mL mixture consisting of 30 μL serum, 750 μL of peptides (1 mg/mL) , and 1470 μL of digestion buffer (pH 8.2, 50 mM Tris, 20 mM CaCl 2 ) was incubated at 37 °C for 16 h. […] The quenched solution was analyzed by reverse -phase […]
In vivo antitumor studies: When the tumors reached a mean volume of 50 mm 3 after inoculation of SKOV-3 cells, the mice were randomly separated into three groups (N=3/group): (1) negative control (PBS); (2) HAL-2; (3) HAL-C. […] During therapy, the tumor volumes and body weights were measured every two days. Length and width of tumors were measured individually using a Vernier caliper. Tumor volumes were calculated using the following formula: tumor volume = length × width 2 × 0.5. […]

Another series relates to SKOV-3 cells. Put plainly: MTT assay of endocytosis inhibitors, 40 min. In kind it is cell-based. Here is the method: The cytotoxicity was tested using an MTT assay. […] A combined solution of 5 mg mL^-1 MTT/PBS (10 μL per well) was added to each well of the 96-well plate assay, and the cells were incubated for an additional 4 hours. Formazan extraction was performed with DMSO and quantified colorimetrically using a Synergy H4 Hybrid Microplate reader (Biotek, USA), which was used to measure the OD 490 nm (absorbance value). The following formula was used to calculate the viability of cell growth: viability (%) = (mean of absorbance value of treatment group-blank/mean absorbance value of control-blank) × 100 (MTT was purchased from Sigma-Aldrich).

Where [2] appears, read: MTT, 40 min incubation, tested inhibitor concentrations (Fig. S17).

Like-named read-outs stand apart in the source and are kept apart here. Residues, ends and D or L forms follow the SMILES beside them. No end group written: not given here. *: point of attachment. X1 = CC(C)CCC[C@@H](C)[C@H]1CC[C@H]2[C@@H]3CC=C4C[C@@H](OCC(=O)*)CC[C@]4(C)[C@H]3CC[C@]12C

In series [1], `CC[C@H](C)[C@H](NC(=O)[C@H](Cc1c[nH]cn1)NC(=O)[C@H](CCCCN)NC(=O)[C@H](CC(C)C)NC(=O)[C@H](CCCCNC(=O)CO[C@H]1CC[C@@]2(C)C(=CC[C@H]3[C@@H]4CC[C@H]([C@H](C)CCCC(C)C)[C@@]4(C)CC[C@@H]32)C1)NC(=O)[C@H](CO)NC(=O)[C@H](CCSC)NC(=O)[C@H](Cc1c[nH]c2ccccc12)NC(=O)[C@H](CCCCN)NC(=O)CN)C(=O)N[C@@H](CC(C)C)C(=O)N[C@@H](CCCCN)C(N)=O` [HAL-C] (H-GKWMSK(X1)LKHILK-NH2) registered an IC50 of 12.7 ± 0.1 µM. For GKWMSLLKHILK-NH2 [HAL-2], in “in vitro”, the amount remaining at 1 h is 55.4%, the fraction remaining at 8 h worked out at 29.4% and the fraction remaining at 16 h came out at 11.2%. The IC50 in series [1] is 54.1 ± 0.5 µM.

On to `CSCC[C@H](NC(=O)[C@H](Cc1c[nH]c2ccccc12)NC(=O)[C@H](CCCCN)NC(=O)CN)C(=O)N[C@@H](CO)C(=O)N[C@@H](CC(C)C)C(=O)N[C@@H](CC(C)C)C(=O)N[C@@H](CCCCN)C(=O)N[C@@H](Cc1c[nH]cn1)C(=O)N[C@@H](CCCCNC(=O)CO[C@H]1CC[C@@]2(C)C(=CC[C@H]3[C@@H]4CC[C@H]([C@H](C)CCCC(C)C)[C@@]4(C)CC[C@@H]32)C1)C(=O)N[C@@H](CC(C)C)C(=O)N[C@@H](CCCCN)C(N)=O` [HAL-D] (H-GKWMSLLKHK(X1)LK-NH2), for which, in series [1], half-maximal inhibition (IC50) was put at 16.2 ± 0.1 µM. `CC[C@H](C)[C@H](NC(=O)[C@H](Cc1c[nH]cn1)NC(=O)[C@H](CCCCNC(=O)CO[C@H]1CC[C@@]2(C)C(=CC[C@H]3[C@@H]4CC[C@H]([C@H](C)CCCC(C)C)[C@@]4(C)CC[C@@H]32)C1)NC(=O)[C@H](CC(C)C)NC(=O)[C@H](CC(C)C)NC(=O)[C@H](CO)NC(=O)[C@H](CCSC)NC(=O)[C@H](Cc1c[nH]c2ccccc12)NC(=O)[C@H](CCCCN)NC(=O)CN)C(=O)N[C@@H](CC(C)C)C(=O)N[C@@H](CCCCN)C(N)=O` [HAL-B] (H-GKWMSLLK(X1)HILK-NH2): the IC50 in series [1] stood at 24.6 ± 0.1 µM. Turning to `N=C(N)NC(=O)c1nc(Cl)c(N)nc1N` [AM, amiloride], the “decrease of SKOV-3 cell viability” value in the series with SKOV-3 cells (setting [2]) is reported as 20%. On to `CN(C)CCCN1c2ccccc2Sc2ccc(Cl)cc21` [CPZ, chlorpromazine], for which the “decrease of SKOV-3 cell viability” value with SKOV-3 cells (setting [2]) stood at 38%. Take methyl-beta cyclodextrin [MBCD]: the “decrease of SKOV-3 cell viability” value in the series on SKOV-3 cells was “no significant effects”.

Source of the values: article PMC5676250, “Cholesterol-directed nanoparticle assemblies based on single amino acid peptide mutations activate cellular uptake and decrease tumor volume” (Chemical Science, 2017).
